# Laboratory results taken from patent US12714696B2, “Low dose fluralaner compositions for protection against parasitic invertebrate pest” (VIRBAC, priority 2019, dated 2026).
# Values joined by “and” are separate entries in the source; they are usually repeats but may differ in a detail not shown here. Identical values can stand only once. Like-named read-outs stand apart in the source and are kept apart here.
# Columns and labels:
# [1] = plasma pK in dogs; fluralaner 56 mg/kg; cited from earlier work
# [2] = Comparison of plasma concentration simulated from experimental data with literature data; design: species or system dogs; conditions: simulation from experimental data (Table 6)
# [3] = Pharmacokinetics after repeated oral administration of 250 μg/kg and 35 μg/kg of fluralaner in dogs after feeding; assay type: in vivo, beagle dogs; conditions: for concentration at 24 h / concentration at 48 h / concentration at 72 h / concentration at 96 h / concentration at 120 h / concentration at 144 h: beagle, dog, plasma, po
# Procedure: The first objective is to obtain the pharmacokinetic parameters after repeated oral administration of […] and 35 μg/kg of fluralaner in dogs after feeding.
# The second objective is to investigate the pharmacodynamics between the fluralaner plasmatic dose and the effectiveness against ticks. • IVP: Investigational Veterinary Product, is pure Fluralaner+DMSO (250 μg/kg on Days 0 to 3 (0.25 mL/kg), then 35 μg/kg on Days 4 to 9 (0.35 mL/kg), then 600 μg/kg on Day 11) • Control product is DMSO (0.25 mL/kg on Days 0 to 3, then 0.35 mL/kg on Days 4 to 9)
# On Days 0, 1, 2 and 3, all dogs assigned to group 2 received the Investigational Veterinary Product. On Days 0 to 3 all dogs in group 1 received the control product at a volume equal to the dogs in group 2. Dogs assigned to group 1 received the control product and served as Placebo controls. The quantity of Investigational Veterinary Product and control product administered was calculated according to the dog's individual body weight measured on Day −1. […]
# On days of administration of pre-Investigational Veterinary Product or Control Product, dogs were fed (the same dog food) approximately half of their normal daily ration 30 minutes to 35 minutes prior to administration. Food consumed by the time of administration was calculated and recorded. The remainder of their normal daily ration was fed immediately after administration.
# The PK parameters of fluralaner were calculated using a non-compartmental approach.
# The following rules were applied for the calculation of the PK parameters: • All the plasma concentrations, validated by the bioanalytical laboratory, were used for the PK analysis. • The actual blood sampling times were used throughout. • Concentrations below the Limit of Quantification (LOQ) value were considered as zero from time zero (pre-dose) up to the time at which the first quantifiable concentration above the LOQ value was observed. Concentrations below the LOQ value between two quantifiable concentrations were considered as missing. Trailing concentrations below the LOQ value were not used in calculations.
# Cmax the observed maximum concentration in plasma measured after dosing.
# λz the terminal rate constant (λz) was estimated by log-linear regression analysis on data points visually assessed, to be on the terminal log-linear phase. For the slope of the terminal elimination phase to be accepted as reliable, the following criteria were used: • the terminal data points were apparently randomly distributed about a single straight line (on visual inspection), • a minimum of three data points, including the last measured data point and excluding Cmax, were available for the regression.
# t1/2 the terminal plasma half-life (t1/2) was calculated according to the following equation: […]
compound,measurement,setting,value
"Cc1cc(C2=NOC(c3cc(Cl)cc(Cl)c3)(C(F)(F)F)C2)ccc1C(=O)NCC(=O)NCC(F)(F)F (stereo not drawn) [fluralaner, Fluralaner]",interference between fluralaner and ivermectin,[1],absence of interference
same,AUCextra,[2],68221.98 µg·days/L
same,AUClast,[2],483104.77 µg·days/L
same,AUCtot,[2],551326.76 µg·days/L
same,t1/2,[2],229 h
same,tmax,[2],72 h
same,Cmax,[2]; compared with literature oral 50.0 mg/kg values,31994.2 ng/mL
same,"fluralaner concentration levels, individual animal","[3]; 24 h, oral 250 μg/kg Days 0-3, 35 μg/kg Days 4-9, 600 μg/kg Day 11, dogs",142 ng/mL and 158 ng/mL and 129 ng/mL
same,"fluralaner concentration levels, individual animal","[3]; 48 h, oral 250 μg/kg Days 0-3, 35 μg/kg Days 4-9, 600 μg/kg Day 11, dogs",269 ng/mL and 283 ng/mL and 253 ng/mL
same,"fluralaner concentration levels, individual animal","[3]; 72 h, oral 250 μg/kg Days 0-3, 35 μg/kg Days 4-9, 600 μg/kg Day 11, dogs",381 ng/mL and 378 ng/mL and 373 ng/mL
same,"fluralaner concentration levels, individual animal","[3]; 96 h, oral 250 μg/kg Days 0-3, 35 μg/kg Days 4-9, 600 μg/kg Day 11, dogs",496 ng/mL and 572 ng/mL and 515 ng/mL
same,"fluralaner concentration levels, individual animal","[3]; 120 h, oral 250 μg/kg Days 0-3, 35 μg/kg Days 4-9, 600 μg/kg Day 11, dogs",465 ng/mL and 535 ng/mL and 554 ng/mL
same,"fluralaner concentration levels, individual animal","[3]; 144 h, oral 250 μg/kg Days 0-3, 35 μg/kg Days 4-9, 600 μg/kg Day 11, dogs",510 ng/mL and 447 ng/mL and 454 ng/mL
same,"fluralaner concentration levels, individual animal","[3]; 168 h, oral 250 μg/kg Days 0-3, 35 μg/kg Days 4-9, 600 μg/kg Day 11, dogs",521 ng/mL and 536 ng/mL and 520 ng/mL
same,"fluralaner concentration levels, individual animal","[3]; 192 h, oral 250 μg/kg Days 0-3, 35 μg/kg Days 4-9, 600 μg/kg Day 11, dogs",456 ng/mL and 558 ng/mL and 455 ng/mL
same,"fluralaner concentration levels, individual animal","[3]; 216 h, oral 250 μg/kg Days 0-3, 35 μg/kg Days 4-9, 600 μg/kg Day 11, dogs",468 ng/mL and 551 ng/mL and 472 ng/mL and 493 ng/mL
same,"fluralaner concentration levels, individual animal","[3]; 240 h, oral 250 μg/kg Days 0-3, 35 μg/kg Days 4-9, 600 μg/kg Day 11, dogs",423 ng/mL and 368 ng/mL and 724 ng/mL and 422 ng/mL
same,"fluralaner concentration levels, individual animal","[3]; 384 h, oral 250 μg/kg Days 0-3, 35 μg/kg Days 4-9, 600 μg/kg Day 11, dogs",893 ng/mL and 523 ng/mL and 715 ng/mL and 1000 ng/mL
same,"fluralaner concentration levels, individual animal","[3]; 528 h, oral 250 μg/kg Days 0-3, 35 μg/kg Days 4-9, 600 μg/kg Day 11, dogs",267 ng/mL and 373 ng/mL and 235 ng/mL and 517 ng/mL and 283 ng/mL
same,"fluralaner concentration levels, individual animal","[3]; 624 h, oral 250 μg/kg Days 0-3, 35 μg/kg Days 4-9, 600 μg/kg Day 11, dogs",223 ng/mL and 280 ng/mL and 182 ng/mL and 403 ng/mL and 227 ng/mL
same,"fluralaner concentration levels, individual animal","[3]; 720 h, oral 250 μg/kg Days 0-3, 35 μg/kg Days 4-9, 600 μg/kg Day 11, dogs",285 ng/mL and 275 ng/mL and 248 ng/mL and 187 ng/mL
same,steady state concentrations,[3]; after the fourth dose application 250 μg/kg per day (on Day 3),not been reached
same,concentration at 24 h,"[3]; 24 h, oral 250 μg/kg Days 0-3, 35 μg/kg Days 4-9, 600 μg/kg Day 11, dogs, read-out: fluralaner concentration levels, individual animal",160 ng/mL
same,concentration at 24 h,"[3]; 24 h, oral 250/35/600 μg/kg regimen, dogs, n=6, read-out: fluralaner concentration levels, GeoMean",145 ng/mL
same,concentration at 24 h,"[3]; 24 h, oral 250/35/600 μg/kg regimen, dogs, n=6, read-out: fluralaner concentration levels, Maximum",160 ng/mL
same,concentration at 24 h,"[3]; 24 h, oral 250/35/600 μg/kg regimen, dogs, n=6, read-out: fluralaner concentration levels, Mean",146 ng/mL
same,concentration at 24 h,"[3]; 24 h, oral 250/35/600 μg/kg regimen, dogs, n=6, read-out: fluralaner concentration levels, Median",146 ng/mL
same,concentration at 24 h,"[3]; 24 h, oral 250/35/600 μg/kg regimen, dogs, n=6, read-out: fluralaner concentration levels, Minimum",129 ng/mL
same,concentration at 48 h,"[3]; 48 h, oral 250 μg/kg Days 0-3, 35 μg/kg Days 4-9, 600 μg/kg Day 11, dogs, read-out: fluralaner concentration levels, individual animal",257 ng/mL
same,concentration at 48 h,"[3]; 48 h, oral 250/35/600 μg/kg regimen, dogs, n=6, read-out: fluralaner concentration levels, GeoMean",269 ng/mL
same,concentration at 48 h,"[3]; 48 h, oral 250/35/600 μg/kg regimen, dogs, n=6, read-out: fluralaner concentration levels, Maximum",312 ng/mL
same,concentration at 48 h,"[3]; 48 h, oral 250/35/600 μg/kg regimen, dogs, n=6, read-out: fluralaner concentration levels, Mean",270 ng/mL
same,concentration at 48 h,"[3]; 48 h, oral 250/35/600 μg/kg regimen, dogs, n=6, read-out: fluralaner concentration levels, Median",263 ng/mL
same,concentration at 48 h,"[3]; 48 h, oral 250/35/600 μg/kg regimen, dogs, n=6, read-out: fluralaner concentration levels, Minimum",245 ng/mL
same,concentration at 72 h,"[3]; 72 h, oral 250 μg/kg Days 0-3, 35 μg/kg Days 4-9, 600 μg/kg Day 11, dogs, read-out: fluralaner concentration levels, individual animal",366 ng/mL
same,concentration at 72 h,"[3]; 72 h, oral 250/35/600 μg/kg regimen, dogs, n=6, read-out: fluralaner concentration levels, GeoMean",386 ng/mL
same,concentration at 72 h,"[3]; 72 h, oral 250/35/600 μg/kg regimen, dogs, n=6, read-out: fluralaner concentration levels, Maximum",469 ng/mL
same,concentration at 72 h,"[3]; 72 h, oral 250/35/600 μg/kg regimen, dogs, n=6, read-out: fluralaner concentration levels, Mean",388 ng/mL
same,concentration at 72 h,"[3]; 72 h, oral 250/35/600 μg/kg regimen, dogs, n=6, read-out: fluralaner concentration levels, Median",376 ng/mL
same,concentration at 72 h,"[3]; 72 h, oral 250/35/600 μg/kg regimen, dogs, n=6, read-out: fluralaner concentration levels, Minimum",361 ng/mL
same,concentration at 96 h,"[3]; 96 h, oral 250 μg/kg Days 0-3, 35 μg/kg Days 4-9, 600 μg/kg Day 11, dogs, read-out: fluralaner concentration levels, individual animal",497 ng/mL
same,concentration at 96 h,"[3]; 96 h, oral 250/35/600 μg/kg regimen, dogs, n=6, read-out: fluralaner concentration levels, GeoMean",524 ng/mL
same,concentration at 96 h,"[3]; 96 h, oral 250/35/600 μg/kg regimen, dogs, n=6, read-out: fluralaner concentration levels, Maximum",602 ng/mL
same,concentration at 96 h,"[3]; 96 h, oral 250/35/600 μg/kg regimen, dogs, n=6, read-out: fluralaner concentration levels, Mean",526 ng/mL
same,concentration at 96 h,"[3]; 96 h, oral 250/35/600 μg/kg regimen, dogs, n=6, read-out: fluralaner concentration levels, Median",506 ng/mL
same,concentration at 96 h,"[3]; 96 h, oral 250/35/600 μg/kg regimen, dogs, n=6, read-out: fluralaner concentration levels, Minimum",471 ng/mL
same,concentration at 120 h,"[3]; 120 h, oral 250 μg/kg Days 0-3, 35 μg/kg Days 4-9, 600 μg/kg Day 11, dogs, read-out: fluralaner concentration levels, individual animal",495 ng/mL
same,concentration at 120 h,"[3]; 120 h, oral 250/35/600 μg/kg regimen, dogs, n=6, read-out: fluralaner concentration levels, GeoMean",508 ng/mL
same,concentration at 120 h,"[3]; 120 h, oral 250/35/600 μg/kg regimen, dogs, n=6, read-out: fluralaner concentration levels, Maximum",554 ng/mL
same,concentration at 120 h,"[3]; 120 h, oral 250/35/600 μg/kg regimen, dogs, n=6, read-out: fluralaner concentration levels, Mean",509 ng/mL
same,concentration at 120 h,"[3]; 120 h, oral 250/35/600 μg/kg regimen, dogs, n=6, read-out: fluralaner concentration levels, Median",515 ng/mL
same,concentration at 120 h,"[3]; 120 h, oral 250/35/600 μg/kg regimen, dogs, n=6, read-out: fluralaner concentration levels, Minimum",465 ng/mL
same,concentration at 144 h,"[3]; 144 h, oral 250 μg/kg Days 0-3, 35 μg/kg Days 4-9, 600 μg/kg Day 11, dogs, read-out: fluralaner concentration levels, individual animal",497 ng/mL
same,concentration at 144 h,"[3]; 144 h, oral 250/35/600 μg/kg regimen, dogs, n=6, read-out: fluralaner concentration levels, GeoMean",491 ng/mL
